Source: US20250367231A1, “MULTIFUNCTIONAL BIOADHESIVE DESIGNED WITH CHEMICAL FUNCTIONALITY INDUCED SUTURED BIOLOGICAL BUILDING BLOCKS” (The Regents of the University of California, priority 2022, published 2025)

Settings: ambient conditions; for time to change in color (self-oxidation of catechol moieties): aqueous solution
Text: Dopamine (Dopa), a naturally derived neurotransmitter molecule^[4], also resembles with the key moiety in mussel foot proteins (catechol)^[11] and has been intensely utilized to develop adhesive biomaterials with diverse clinical importance^[12]. In view of the biological relevance of multifunctional catecholic moieties, herein, Dopa skeleton was chemically modified with a nitro-group to modulate the electronic properties of the aromatic ring^[13] (FIG. 1a). To use the nitro incorporated dopamine (nDopa) moiety for designing functional biomaterials, it was further covalently conjugated with a methacrylate group through an amide linkage (FIG. 1a).

| SMILES | time to change in color (self-oxidation of catechol moieties) | time without self-oxidation |
| --- | --- | --- |
| C=C(C)C(=O)NCCc1ccc(O)c(O)c1 [MAD, methacrylated dopamine] | 24 h | – |
| C=C(C)C(=O)NCCc1cc(O)c(O)cc1[N+](=O)[O-] [nMAD, methacrylated nitro-dopamine] | – | > 7 days |
| NCCc1ccc(O)c(O)c1 [Dopa, dopamine] | 1 h | – |
